Values after ≈ are worked out from the molar mass of the structure shown.
Experiments:
[1] = chronic; duration: 128 days; other
Apis mellifera = conditions: acute, mortality
Bibionidae = conditions: chronic/long-term
Canidae = conditions: chronic; duration: 2 years; Dog Other; histopathology: nonneoplastic
Danio rerio = conditions: chronic
Daphnia magna = conditions: chronic/long-term; duration: 21 days; reproduction
Folsomia candida = conditions: chronic/long-term; mortality
Oncorhynchus mykiss = conditions: acute; duration: 96 hours; mortality
Oryctolagus sp. = conditions: developmental; development
Pimephales promelas = conditions: chronic/long-term; reproduction
Tagia sp. = conditions: chronic/long-term; growth
Aphidius rhopalosiphi = test: LR50; higher = less toxic; conditions: not reported; mortality

In the case of `CCC(CC)Nc1c([N+](=O)[O-])cc(C)c(C)c1[N+](=O)[O-]` [Pendimethalin], the NOEC [1] was 0.00023 mg/L, the LD50 (Anas platyrhynchos; acute, oral, unspecified, mortality) was 1420 mg/kg-day and the NOEL (Anas platyrhynchos; reproductive) was 17.5 mg/kg-day. The LD50 (Apis mellifera; dermal) was > 100 µg/piece, the LD50 (Apis mellifera; oral, unspecified) was > 101 µg/piece and the NOEC (Bibionidae; duration: 28 days) was 227 mg/kg. For the same compound, the NOEC (Bibionidae; duration: 30 days) was 0.082 mg/L, the NOAEL (Canidae) was 12.5 mg/kg-day and the NOEC (Danio rerio) was 0.032 mg/L. For the same compound, the NOEC (Daphnia magna) was 0.0145 mg/L, the NOEC (Folsomia candida) was 193 mg/kg and the LC50 (Oncorhynchus mykiss) was 0.196 mg/L (≈ 0.697 µM). For the same compound, the NOAEL (Oryctolagus sp.) was 30 mg/kg-day, the NOEC (Pimephales promelas) was 0.0063 mg/L and the LD50 (Rattus norvegicus; acute, mortality) was 3930 mg/kg-day. The NOAEL (Rattus norvegicus; reproduction developmental, body weight) was 30 mg/kg-day, the NOEC (Tagia sp.) was 33.5 mg/kg and the LR50 (Aphidius rhopalosiphi) was 1200 g/ha.
